Reference: patent US8124111B2, “Immunomodulation by altering sphingosine 1-phosphate lyase (SPL) activity” (Children's Hospital & Research Center at Oakland, priority 2005, dated 2012)

Columns and labels:
[1] = test system: human SPL luciferase reporter construct; experiment: SPL gene expression, human SPL luciferase reporter in HEK293 cells; assay type: cell-based; details: 0.3 μM or 3.0 μM, 24 hours
Description: (§1) (A) SPL gene expression. HEK293 cells were co-transfected with a human SPL luciferase reporter construct and the sea pansy luciferase reporter as a control for transfection efficiency. Twenty-four hours after transfection, cells were treated with 0.3 μM FTY720, 3.0 μM FTY720 or vehicle and incubated for another 24 hours at 37° C. Luciferase activity was then determined as a measure of expression, as described in Experimental Methods. Values shown are luciferase activity normalized to sea pansy luciferase; (B) SPL protein expression. Thymic extracts from control mice (time 0) and mice treated with FTY720 for 24 hours were evaluated for SPL protein expression by immunoblotting. Actin was used as a loading control.
(§2) SPL expression: To evaluate the effect of FTY720 and FTY720-P on SPL gene expression, HEK293 cells were treated for 30 minutes with 3 μM of either drug, followed by transfection with pSPL-BamHI, a human SPL-luciferase reporter construct. After 48 hours, reporter expression was determined by luciferase activity as described (Oskouian et al., (2005) J Biol Chem 280, 18403-18410)). Western blotting of mouse tissue extracts was performed using a 1:2000 dilution of polyclonal sera raised against the murine SPL C-terminal peptide: (NH2)—V-T-Q-G-N-Q-M-N-G-S—P—K—P—R—(COOH). [SEQ ID NO:11] […]

[2] = single dose administration; cited from earlier work
SPL = target: T1, SPL (Homo sapiens, UniProt O95470); experiment: Inhibition of SPL activity in vitro (whole cell extracts of HEK293 cells with human SPL adenoviral construct); assay type: biochemical; parameters: expressed in transfected cells; host or cells: HEK293 infected with adenoviral vector
T1 sequence (O95470 1-568): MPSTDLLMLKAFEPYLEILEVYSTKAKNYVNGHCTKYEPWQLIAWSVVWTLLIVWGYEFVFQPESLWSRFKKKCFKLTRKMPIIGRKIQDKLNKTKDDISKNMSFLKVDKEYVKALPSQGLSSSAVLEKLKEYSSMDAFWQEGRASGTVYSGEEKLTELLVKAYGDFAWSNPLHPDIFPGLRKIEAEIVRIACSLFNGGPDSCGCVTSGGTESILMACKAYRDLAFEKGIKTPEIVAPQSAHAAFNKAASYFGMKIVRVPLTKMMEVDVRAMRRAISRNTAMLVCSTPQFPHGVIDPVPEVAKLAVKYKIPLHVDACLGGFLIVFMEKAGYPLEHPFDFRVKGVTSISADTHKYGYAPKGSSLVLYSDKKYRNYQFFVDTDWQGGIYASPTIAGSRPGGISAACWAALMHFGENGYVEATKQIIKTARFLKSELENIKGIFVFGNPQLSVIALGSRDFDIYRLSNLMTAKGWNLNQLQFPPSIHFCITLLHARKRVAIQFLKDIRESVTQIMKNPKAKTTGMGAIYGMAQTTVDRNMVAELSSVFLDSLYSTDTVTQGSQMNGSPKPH
Description: Various concentrations of FTY720 or its phosphorylated derivative (FTY720P) were incubated for 30 minutes on ice with whole cell extracts containing high SPL activity by virtue of a human SPL adenoviral expression construct. SPL activity was determined. (A) FTY720; (B) FTY720-P.
SPL enzyme assay: Tissues were homogenized by sonication in 9 volumes of ice-cold homogenization buffer (5 mM MOPS pH 7.5, 1 mM DTT, 1 mM EDTA, 0.25 M sucrose, and 5 micrograms/ml each chymostatin, leupeptin, pepstatin A and antipain). SPL assays were conducted using 50 micrograms protein per assay and radioactive [4,5 ^3H]DHS1P substrate, as described previously (Reiss et al., (2004) J Biol Chem 279, 1281-1290). For in vitro FTY720 and FTY720-P experiments, drug was incubated with whole cell extracts prepared from HEK293 cells infected with an adenoviral vector expressing human SPL. These extracts contained approximately 200 picomoles/mg protein/minute SPL activity. Drug was incubated with extracts for 30 minutes, followed by addition of extracts to reaction buffer and substrate to initiate the reaction.
Although treatment with FTY720 was associated with low (nanomolar) circulating drug levels, it was possible that local concentrations within cells and subcellular compartments may have been considerably higher, since FTY720 has been reported to be actively transported into cells by the actions of drug transporters that recognize long chain bases (Honig et al., (2003) J Clin Invest 111, 627-637).

SPL protein expression = SPL protein expression in thymic extracts by immunoblotting; assay type: in vivo; details: mice treated for 24 hours
Description: as §1, §2

[3] = 30 minutes incubation with extracts

## CCCCCCCCc1ccc(CCC(N)(CO)CO)cc1 [FTY720]
[1]
  SPL gene expression (luciferase activity normalized to sea pansy luciferase): not affected
[2]
  elimination half-life: long
SPL
  dose dependence of SPL inhibition in vitro: dose-dependent
SPL; [3]
  concentration of maximal effect on SPL activity in vitro: 30 µM
  lowest concentration with effect on SPL activity in vitro: 300 nM
SPL protein expression
  SPL protein expression (immunoblotting): not affected
